Measured values: ChEMBL document CHEMBL1909046, “DrugMatrix in vitro pharmacology data”

What was measured:
Glycine receptor = Glycine receptor (Rattus norvegicus, UniProt P22771+P24524+P07727+P20781); format: cell membranes, Wistar, Spinal cord, Membrane; note: in other assays of this panel Not Active means under 50% inhibition at 10 µM
[1] = biological target: Voltage-gated inwardly rectifying potassium channel KCNH2 (Homo sapiens, UniProt Q12809); conditions: hek293; note: in other assays of this panel Not Active means under 50% inhibition at 10 µM
[2] = biological target: T1, Angiotensin-converting enzyme (Oryctolagus cuniculus, UniProt P12822); format: tissue-based, Lung;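 note: enzymatic inhibition of angiotensin-converting enzyme measured with FAPGG as the substrate; in other assays of this panel Not Active means under 50% inhibition at 10 µM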
T1 sequence (P12822 whole entry): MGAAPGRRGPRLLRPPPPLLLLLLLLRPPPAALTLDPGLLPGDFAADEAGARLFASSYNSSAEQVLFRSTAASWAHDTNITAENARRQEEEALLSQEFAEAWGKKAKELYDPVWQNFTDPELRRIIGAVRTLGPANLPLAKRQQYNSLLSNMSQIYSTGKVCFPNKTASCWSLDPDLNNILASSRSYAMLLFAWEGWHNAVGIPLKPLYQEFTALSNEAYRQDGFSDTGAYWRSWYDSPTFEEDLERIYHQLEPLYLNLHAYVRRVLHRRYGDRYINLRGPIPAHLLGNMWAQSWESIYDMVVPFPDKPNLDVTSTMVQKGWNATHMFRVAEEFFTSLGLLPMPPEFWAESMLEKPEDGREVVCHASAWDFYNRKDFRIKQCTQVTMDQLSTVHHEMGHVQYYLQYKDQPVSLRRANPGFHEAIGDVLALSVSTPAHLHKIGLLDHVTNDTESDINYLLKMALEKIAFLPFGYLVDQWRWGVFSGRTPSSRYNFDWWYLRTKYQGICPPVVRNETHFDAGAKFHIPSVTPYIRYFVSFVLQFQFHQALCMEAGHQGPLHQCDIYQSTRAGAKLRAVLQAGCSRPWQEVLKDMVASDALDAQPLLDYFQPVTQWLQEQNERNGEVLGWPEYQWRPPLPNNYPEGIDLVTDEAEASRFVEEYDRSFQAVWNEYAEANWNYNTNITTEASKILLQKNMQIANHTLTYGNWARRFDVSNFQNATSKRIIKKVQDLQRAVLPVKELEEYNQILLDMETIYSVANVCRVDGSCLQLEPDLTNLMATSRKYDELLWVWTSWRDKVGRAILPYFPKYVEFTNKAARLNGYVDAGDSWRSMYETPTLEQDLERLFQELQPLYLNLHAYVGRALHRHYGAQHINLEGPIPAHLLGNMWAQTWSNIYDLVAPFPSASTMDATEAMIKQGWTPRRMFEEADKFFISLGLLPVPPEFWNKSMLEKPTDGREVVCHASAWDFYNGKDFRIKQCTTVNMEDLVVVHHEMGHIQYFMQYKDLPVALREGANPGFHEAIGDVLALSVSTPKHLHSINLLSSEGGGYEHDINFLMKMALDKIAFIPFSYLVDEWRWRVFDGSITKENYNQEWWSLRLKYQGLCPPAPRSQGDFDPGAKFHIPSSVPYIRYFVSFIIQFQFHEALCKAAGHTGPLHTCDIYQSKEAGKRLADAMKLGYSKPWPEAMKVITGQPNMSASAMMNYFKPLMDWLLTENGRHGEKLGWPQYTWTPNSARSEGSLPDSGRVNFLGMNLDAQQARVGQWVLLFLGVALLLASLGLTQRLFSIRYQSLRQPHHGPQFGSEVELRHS

[3] = biological target: Vascular endothelial growth factor receptor 1 (Homo sapiens, UniProt P17948); format: cell-based; conditions: huvec; note: in other assays of this panel Not Active means under 50% inhibition at 10 µM
Caspase-1 = biological target: T2, Caspase-1 (Homo sapiens, UniProt P29466); design: species or system Escherichia coli
T2 sequence (P29466 whole entry): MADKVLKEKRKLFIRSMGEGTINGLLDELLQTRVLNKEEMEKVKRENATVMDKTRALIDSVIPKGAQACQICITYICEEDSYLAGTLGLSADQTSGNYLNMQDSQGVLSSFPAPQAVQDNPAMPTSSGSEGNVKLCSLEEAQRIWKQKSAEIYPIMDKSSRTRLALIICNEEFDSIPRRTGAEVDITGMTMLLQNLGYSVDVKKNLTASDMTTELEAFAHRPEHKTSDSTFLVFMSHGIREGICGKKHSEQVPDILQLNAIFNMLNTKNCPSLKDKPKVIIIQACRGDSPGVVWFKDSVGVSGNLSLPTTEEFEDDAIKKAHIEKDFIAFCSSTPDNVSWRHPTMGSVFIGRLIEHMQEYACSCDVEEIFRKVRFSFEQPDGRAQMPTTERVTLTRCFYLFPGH

[4] = biological target: Sigma non-opioid intracellular receptor 1 (Homo sapiens, UniProt Q99720); experiment: DRUGMATRIX: Sigma1 radioligand binding (ligand: [3H] Haloperidol); format: cell membranes, Jurkat, Membrane; conditions: Not Active = under 50% inhibition at 10 µM
[5] = biological target: T3, 3-hydroxy-3-methylglutaryl-coenzyme A reductase (Homo sapiens, UniProt P04035); design: species or system Escherichia coli
T3 sequence (P04035 whole entry): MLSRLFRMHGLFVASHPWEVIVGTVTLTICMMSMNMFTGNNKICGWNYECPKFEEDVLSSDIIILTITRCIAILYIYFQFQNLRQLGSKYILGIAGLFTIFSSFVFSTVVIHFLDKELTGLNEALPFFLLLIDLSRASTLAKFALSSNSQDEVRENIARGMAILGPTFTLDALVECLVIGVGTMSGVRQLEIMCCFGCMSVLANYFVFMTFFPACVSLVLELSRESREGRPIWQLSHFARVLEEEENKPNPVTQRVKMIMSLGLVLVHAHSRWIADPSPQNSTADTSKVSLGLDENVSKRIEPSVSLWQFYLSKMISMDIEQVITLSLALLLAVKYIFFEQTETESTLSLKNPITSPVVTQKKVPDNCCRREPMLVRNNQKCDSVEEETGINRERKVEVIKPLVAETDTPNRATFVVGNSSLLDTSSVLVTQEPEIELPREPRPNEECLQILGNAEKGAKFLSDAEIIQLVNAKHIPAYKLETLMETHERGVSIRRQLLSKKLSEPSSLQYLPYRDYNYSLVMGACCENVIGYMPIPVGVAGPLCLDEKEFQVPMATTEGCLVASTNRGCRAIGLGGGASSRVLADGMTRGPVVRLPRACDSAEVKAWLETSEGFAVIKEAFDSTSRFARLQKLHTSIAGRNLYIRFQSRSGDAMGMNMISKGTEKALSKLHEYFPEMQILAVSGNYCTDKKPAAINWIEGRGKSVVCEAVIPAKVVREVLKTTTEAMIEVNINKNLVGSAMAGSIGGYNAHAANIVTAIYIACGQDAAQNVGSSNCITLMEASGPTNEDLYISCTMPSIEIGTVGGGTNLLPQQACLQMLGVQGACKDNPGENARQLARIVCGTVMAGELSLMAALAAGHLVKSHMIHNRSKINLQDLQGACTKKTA

Chain of Sigma non-opioid intracellular receptor 1 (Q99720 whole entry): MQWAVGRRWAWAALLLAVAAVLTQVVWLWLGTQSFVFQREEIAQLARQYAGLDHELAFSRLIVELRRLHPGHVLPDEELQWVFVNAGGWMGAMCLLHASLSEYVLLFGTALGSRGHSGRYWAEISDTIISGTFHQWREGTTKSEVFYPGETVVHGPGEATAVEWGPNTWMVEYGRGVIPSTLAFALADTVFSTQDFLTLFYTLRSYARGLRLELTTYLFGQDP
Chain of Voltage-gated inwardly rectifying potassium channel KCNH2 (Q12809 whole entry): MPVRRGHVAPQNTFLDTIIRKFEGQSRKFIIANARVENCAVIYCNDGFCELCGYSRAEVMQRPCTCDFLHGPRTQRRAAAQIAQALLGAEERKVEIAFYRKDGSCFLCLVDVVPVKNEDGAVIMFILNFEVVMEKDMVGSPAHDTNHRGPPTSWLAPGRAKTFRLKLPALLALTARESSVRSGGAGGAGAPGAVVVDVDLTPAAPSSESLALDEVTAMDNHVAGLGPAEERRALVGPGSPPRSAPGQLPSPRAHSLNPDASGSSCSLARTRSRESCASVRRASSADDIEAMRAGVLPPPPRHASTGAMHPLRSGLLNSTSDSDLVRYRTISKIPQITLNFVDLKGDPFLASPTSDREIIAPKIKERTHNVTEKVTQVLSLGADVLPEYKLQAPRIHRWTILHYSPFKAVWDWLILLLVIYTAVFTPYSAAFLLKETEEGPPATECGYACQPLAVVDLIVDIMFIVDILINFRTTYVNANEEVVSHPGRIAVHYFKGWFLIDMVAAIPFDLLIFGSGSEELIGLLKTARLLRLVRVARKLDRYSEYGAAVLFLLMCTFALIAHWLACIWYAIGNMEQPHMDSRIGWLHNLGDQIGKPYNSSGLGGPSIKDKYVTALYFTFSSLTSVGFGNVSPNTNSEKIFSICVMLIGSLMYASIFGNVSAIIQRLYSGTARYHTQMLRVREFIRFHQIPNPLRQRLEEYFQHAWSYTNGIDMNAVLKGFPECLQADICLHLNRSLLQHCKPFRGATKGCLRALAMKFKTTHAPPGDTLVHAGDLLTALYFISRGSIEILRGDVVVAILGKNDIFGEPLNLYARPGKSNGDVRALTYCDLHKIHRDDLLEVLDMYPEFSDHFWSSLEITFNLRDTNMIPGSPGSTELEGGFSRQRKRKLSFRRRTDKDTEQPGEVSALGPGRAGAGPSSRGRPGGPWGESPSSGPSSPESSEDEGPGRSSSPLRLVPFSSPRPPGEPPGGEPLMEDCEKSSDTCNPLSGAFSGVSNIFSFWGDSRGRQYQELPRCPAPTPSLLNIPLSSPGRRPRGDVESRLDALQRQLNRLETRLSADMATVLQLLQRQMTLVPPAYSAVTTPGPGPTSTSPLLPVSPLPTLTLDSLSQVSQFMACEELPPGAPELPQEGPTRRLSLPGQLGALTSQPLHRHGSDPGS
Chain of Vascular endothelial growth factor receptor 1 (P17948 whole entry): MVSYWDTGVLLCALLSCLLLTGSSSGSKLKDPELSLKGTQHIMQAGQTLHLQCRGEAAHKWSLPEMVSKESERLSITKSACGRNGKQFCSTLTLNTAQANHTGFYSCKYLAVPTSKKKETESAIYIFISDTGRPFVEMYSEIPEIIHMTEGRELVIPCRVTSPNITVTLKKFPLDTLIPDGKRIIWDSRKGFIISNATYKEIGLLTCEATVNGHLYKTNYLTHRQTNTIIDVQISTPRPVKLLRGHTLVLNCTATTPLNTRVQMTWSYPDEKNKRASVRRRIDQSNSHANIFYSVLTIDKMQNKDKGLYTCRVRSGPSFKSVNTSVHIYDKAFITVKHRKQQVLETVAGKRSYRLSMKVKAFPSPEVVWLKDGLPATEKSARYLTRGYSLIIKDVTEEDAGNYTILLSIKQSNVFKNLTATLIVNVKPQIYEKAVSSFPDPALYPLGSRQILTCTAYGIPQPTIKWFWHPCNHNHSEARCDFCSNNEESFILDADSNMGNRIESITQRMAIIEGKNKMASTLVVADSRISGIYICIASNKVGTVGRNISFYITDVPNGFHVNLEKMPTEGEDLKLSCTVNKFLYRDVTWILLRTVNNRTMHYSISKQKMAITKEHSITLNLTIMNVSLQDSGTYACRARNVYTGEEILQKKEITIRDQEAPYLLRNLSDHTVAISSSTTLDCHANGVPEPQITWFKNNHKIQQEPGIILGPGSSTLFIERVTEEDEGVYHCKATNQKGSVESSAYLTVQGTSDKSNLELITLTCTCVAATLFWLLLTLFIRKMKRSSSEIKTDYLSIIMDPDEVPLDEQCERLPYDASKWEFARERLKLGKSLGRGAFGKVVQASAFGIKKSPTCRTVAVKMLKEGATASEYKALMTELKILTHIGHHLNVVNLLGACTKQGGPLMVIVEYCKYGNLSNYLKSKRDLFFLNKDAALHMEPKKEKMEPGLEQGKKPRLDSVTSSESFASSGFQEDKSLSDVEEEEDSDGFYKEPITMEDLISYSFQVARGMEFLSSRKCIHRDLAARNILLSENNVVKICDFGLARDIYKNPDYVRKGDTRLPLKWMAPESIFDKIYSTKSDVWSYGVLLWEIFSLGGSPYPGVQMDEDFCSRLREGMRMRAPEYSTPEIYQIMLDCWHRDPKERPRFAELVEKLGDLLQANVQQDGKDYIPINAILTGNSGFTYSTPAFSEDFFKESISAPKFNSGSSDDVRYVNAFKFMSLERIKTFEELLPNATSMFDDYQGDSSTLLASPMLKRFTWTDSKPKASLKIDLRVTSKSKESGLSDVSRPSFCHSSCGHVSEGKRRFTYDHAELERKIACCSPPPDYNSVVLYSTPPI

C[C@]12C=CC(=O)C=C1CC[C@@H]1[C@@H]2C(=O)C[C@@]2(C)[C@H]1CC[C@]2(O)C(=O)CO [PREDNISONE]
IC50 (Glycine receptor): Not Active | IC50 [1]: Not Active | Ki [1]: Not Active | IC50 [2]: Not Active | IC50 [3]: Not Active | IC50 (Caspase-1): Not Active | IC50 ([4]; jurkat): Not Active | IC50 [5]: Not Active

COC(=O)[C@H]1[C@H]2C[C@@H]3c4[nH]c5cc(OC)ccc5c4CCN3C[C@H]2C[C@@H](OC(=O)c2cc(OC)c(OC)c(OC)c2)[C@@H]1OC [RESERPINE]
IC50 (Glycine receptor): Not Active | IC50 [1]: Not Active | Ki [1]: Not Active | IC50 [2]: Not Active | IC50 [3]: Not Active | IC50 (Caspase-1): Not Active | IC50 ([4]; jurkat): Not Active | IC50 [5]: Not Active

O=C(O)c1ccccc1O [SALICYLIC ACID]
IC50 (Glycine receptor): Not Active | IC50 [1]: Not Active | Ki [1]: Not Active | IC50 [2]: Not Active | IC50 [3]: Not Active | IC50 (Caspase-1): Not Active | IC50 ([4]; jurkat): Not Active | IC50 [5]: Not Active

CC1CCC(NC(=O)N(CCCl)N=O)CC1 (configuration not stated) [SEMUSTINE]
IC50 (Glycine receptor): Not Active | IC50 [1]: Not Active | Ki [1]: Not Active | IC50 [2]: Not Active | IC50 [3]: Not Active | IC50 (Caspase-1): Not Active | IC50 ([4]; jurkat): Not Active | IC50 [5]: Not Active

C[N+](C)(C)CCOC(=O)CCC(=O)OCC[N+](C)(C)C.[Cl-].[Cl-] [SUCCINYLCHOLINE CHLORIDE]
IC50 (Glycine receptor): Not Active | IC50 [1]: Not Active | Ki [1]: Not Active | IC50 [2]: Not Active | IC50 [3]: Not Active | IC50 (Caspase-1): Not Active | IC50 ([4]; jurkat): Not Active | IC50 [5]: Not Active

Nc1ccc(S(=O)(=O)NC(=O)c2ccccc2)cc1 [SULFABENZAMIDE]
IC50 (Glycine receptor): Not Active | IC50 [1]: Not Active | Ki [1]: Not Active | IC50 [2]: Not Active | IC50 [3]: Not Active | IC50 (Caspase-1): Not Active | IC50 ([4]; jurkat): Not Active | IC50 [5]: Not Active

CCCCCCCCNC(C)C(O)c1ccc(SC(C)C)cc1 (configuration not stated) [SULOCTIDIL]
IC50 (Glycine receptor): Not Active | IC50 [1]: Not Active | Ki [1]: Not Active | IC50 [2]: Not Active | IC50 [3]: Not Active | IC50 (Caspase-1): Not Active | IC50 ([4]; read-out: IC50): 117 nM | Ki ([4]; read-out: Ki): 49.3 nM | IC50 [5]: Not Active

O=c1[nH]c(=O)n(C2CCCO2)cc1F (configuration not stated) [TEGAFUR]
IC50 (Glycine receptor): Not Active | IC50 [1]: Not Active | Ki [1]: Not Active | IC50 [2]: Not Active | IC50 [3]: Not Active | IC50 (Caspase-1): Not Active | IC50 ([4]; jurkat): Not Active | IC50 [5]: Not Active

CC(=N)S [THIOACETAMIDE]
IC50 (Glycine receptor): Not Active | IC50 [1]: Not Active | Ki [1]: Not Active | IC50 [2]: Not Active | IC50 [3]: Not Active | IC50 (Caspase-1): Not Active | IC50 ([4]; jurkat): Not Active | IC50 [5]: Not Active

Cc1ccc(C(=O)c2ccc(CC(=O)O)n2C)cc1 [TOLMETIN]
IC50 (Glycine receptor): Not Active | IC50 [1]: Not Active | Ki [1]: Not Active | IC50 [2]: Not Active | IC50 [3]: Not Active | IC50 (Caspase-1): Not Active | IC50 ([4]; jurkat): Not Active | IC50 [5]: Not Active

CC(=O)OCC(COC(C)=O)OC(C)=O [TRIACETIN]
IC50 (Glycine receptor): Not Active | IC50 [1]: Not Active | Ki [1]: Not Active | IC50 [2]: Not Active | IC50 [3]: Not Active | IC50 (Caspase-1): Not Active | IC50 ([4]; jurkat): Not Active | IC50 [5]: Not Active

TRANSPLATIN
IC50 (Glycine receptor): Not Active | Ki (Glycine receptor): Not Active | IC50 [1]: Not Active | Ki [1]: Not Active | IC50 [2]: Not Active | Ki [2]: Not Active | IC50 [3]: Not Active | Ki [3]: Not Active | IC50 (Caspase-1): Not Active | Ki (Caspase-1): Not Active | IC50 ([4]; jurkat): Not Active | Ki ([4]; jurkat): Not Active | IC50 [5]: Not Active | Ki [5]: Not Active

ZIRCONIUM(IV) CHLORIDE
IC50 (Glycine receptor): Not Active | Ki (Glycine receptor): Not Active | IC50 [1]: Not Active | Ki [1]: Not Active | IC50 [2]: Not Active | Ki [2]: Not Active | IC50 [3]: Not Active | Ki [3]: Not Active | IC50 (Caspase-1): Not Active | Ki (Caspase-1): Not Active | IC50 ([4]; jurkat): Not Active | Ki ([4]; jurkat): Not Active | IC50 [5]: Not Active | Ki [5]: Not Active
